Test results as given in US9272985B2, “Antibacterial hydroxyphenyl compound” (FAB PHARMA S.A.S., priority 2009, dated 2016).
Converted amounts (≈) assume the structure as drawn. Like-named read-outs stand apart in the source and are kept apart here.

What was measured:
E. coli FabI enzyme = E. coli FabI enzyme (Escherichia coli, UniProt P0AEK4); experiment: In vitro inhibition of recombinant E. coli FabI enzyme; format: biochemical
Procedure: (§1) Compound inhibitory activity of FabI enzyme is measured in vitro by the IC50 determination using a fluorescence based assay.
(§2) The biochemical activity of the FabI enzyme is assessed using the following method.
The assay buffer “AB” contained 50 mM ADA (N-(2-acetamido)iminodiacetic acid monosodium salt) pH 6.5, 1 m M dithiothreitol, 0.006% Triton-X100 and 50 mM NaCl. The following components are added in a white polystyrene Costar plate (Ref 3912) up to a final volume of 55.5 μL: 1.5 μL DMSO or inhibitor dissolved in DMSO and 54 μL of a FabI/NADPH/NADP+ mixture in AB. After 60 min of pre-incubation at room temperature, the reaction is started by addition of 5 μL of trans-2-octenoyl N-acetylcysteamine thioester (t-o-NAC) to a final volume of 60.5 μL. […] Fluorescence intensity of NADPH (λex=360 nm, λem=520 nm) is measured immediately after t-O-NAC addition (T0), and approximately 50 min later (T50) by a Fluostar Optima (BMG) so as to achieve ±30% of NADPH conversion. Enzyme activity is calculated by first subtracting T0 signal to T50 and then subtracting background signal (FabI=0). Percentages of inhibition are calculated against untreated samples (Inhibitor=0) and IC50 are fitted to a classical Langmuir equilibrium model using XLFIT (IDBS).

[1] = Formulated solubility in 20% hydroxypropyl beta cyclodextrin aqueous solution with 5% dextrose; format: physicochemical; conditions: for solubility at 24 h: aqueous with cosolvent or surfactant or cyclodextrin, thermodynamic from solid, 20% hydroxypropyl beta cyclodextrin aqueous solution with 5% dextrose, 20° C.
Procedure: (§3) For each medium, the saturation of the medium is obtained by adding an excess of investigated compound to a given volume of test medium. The suspension is stirred at 20° C. for 24 h, the supernatant is then isolated and diluted to allow its injection into a chromatographic system. The concentration of the compound in solution for each medium is determined by external standardization.
Solubility was also investigated in a 20% hydroxypropyl beta cyclodextrin aqueous solution with 5% dextrose and the results are shown in Table 4.

[2] = Aqueous solubility at pH 7.4 buffer; format: physicochemical; conditions: for solubility at 24 h: aqueous buffer, thermodynamic from solid, 20° C.
Procedure: as §3

S. aureus CIP 54.146 = experiment: MIC determination using broth microdilution method; format: cell-based; conditions: Staphylococcus aureus, CIP54 / MSSA; MSSA CIP 54.146; range over a number of batches; read-out: MIC (μg/ml) (Broth microdilution) S. aureus CIP 54.146
Procedure: The compound of the invention is a useful antibacterial agent having a selective spectrum of activity in vitro against bacterial strains relying on FabI and related targets. […] The activity is presented as Minimum Inhibitory Concentration (MIC) expressed in μg/ml and was determined using broth microdilution or Agar dilution methods.
Antibacterial activity was determined on MSSA CIP 54.146 provided by the Centre de Ressources Biologiques de l'Institut Pasteur
This protocol is compliant with Clinical Laboratory Standards Institute (CLSI) methodology as described in M7-A7 document of the CLSI. The compound to be tested is diluted according to a geometric series of reason 2 in pure DMSO. Dilutions are transferred in sterile polystyrene microplates, followed by mid-log phase bacteria in cation-adjusted Muller-Hinton broth (ca-MHB, Fluka, Reference 90922) with a final inoculum of 5×10^5 cfu/ml. Microplates are incubated overnight at 35° C. MIC is defined as the lowest concentration of antimicrobial agent that completely prevents visible bacterial growth. All manipulations, but compound handling (in pure DMSO), are performed under sterile conditions. The final concentration of DMSO in the plates is 2%.

FabI from S. aureus = target: T1, FabI from S. aureus (Staphylococcus aureus, UniProt Q6GI75); experiment: In vitro inhibition of recombinant S. aureus FabI enzyme (fluorescence based assay); format: biochemical
T1 construct: made in house
T1 sequence (Q6GI75 1-256): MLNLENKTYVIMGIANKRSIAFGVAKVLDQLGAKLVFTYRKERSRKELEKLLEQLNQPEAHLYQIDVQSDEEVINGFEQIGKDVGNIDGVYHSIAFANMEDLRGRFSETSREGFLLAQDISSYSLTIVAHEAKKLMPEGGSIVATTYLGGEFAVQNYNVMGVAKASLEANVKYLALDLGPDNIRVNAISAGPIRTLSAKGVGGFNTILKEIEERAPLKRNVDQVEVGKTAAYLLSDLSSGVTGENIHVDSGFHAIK
Procedure: as §1
The protein FabI from S. aureus is prepared and purified using standard methods for recombinant protein expression after cloning of the gene in a prokaryotic expression vector.
as §2
The assay buffer “AB” contained 50 mM ADA (N-(2-acetamido)iminodiacetic acid monosodium salt) pH 6.5, 1 m M dithiothreitol, 0.006% Triton-X100 and 50 mM NaCl. The following components are added in a white polystyrene Costar plate (Ref 3912) up to a final volume of 55.5 μL: 1.5 μL DMSO or inhibitor dissolved in DMSO and 54 μL of a FabI/NADPH/NADP+ mixture in AB. […] Fluorescence intensity of NADPH (λex=360 nm, λem=520 nm) is measured immediately after t-O-NAC addition (T0), and approximately 50 min later (T50) by a Fluostar Optima (BMG) so as to achieve ±30% of NADPH conversion. Enzyme activity is calculated by first subtracting T0 signal to T50 and then subtracting background signal (FabI=0). Percentages of inhibition are calculated against untreated samples (Inhibitor=0) and IC50 are fitted to a classical Langmuir equilibrium model using XLFIT (IDBS).

[3] = Panel of 112 in vitro binding assays and 42 in vitro enzyme assays; conditions: except human norepinephrine transporter
[4] = Functional observation battery and evaluation of respiration function in rats; format: in vivo; conditions: compared to vehicle only
[5] = QT interval in conscious dogs after single intravenous infusion; format: in vivo
[6] = test system: target bacterial populations; experiment: Resistance and killing profile in target bacterial populations; format: cell-based
[7] = In vivo studies in rats and dogs (adverse effects)
[8] = test system: MSSA, MRSA and VISA infections; experiment: Murine infection model; format: in vivo
Text: (§4) Such increased solubility provides the significant advantage of allowing the compound of the invention to be administered intravenously.

[9] = test system: MSSA, MRSA, VISA and VRSA strains; experiment: In vitro activity against pathogenic S. aureus strains; format: cell-based, Staphylococcus aureus; conditions: several pathogenic strains
Text: as §4

hERG = hERG (Homo sapiens, UniProt Q12809); experiment: hERG tail current amplitude in vitro; format: cell-based; conditions: after rundown subtraction
hERG, sequence (Q12809 whole entry): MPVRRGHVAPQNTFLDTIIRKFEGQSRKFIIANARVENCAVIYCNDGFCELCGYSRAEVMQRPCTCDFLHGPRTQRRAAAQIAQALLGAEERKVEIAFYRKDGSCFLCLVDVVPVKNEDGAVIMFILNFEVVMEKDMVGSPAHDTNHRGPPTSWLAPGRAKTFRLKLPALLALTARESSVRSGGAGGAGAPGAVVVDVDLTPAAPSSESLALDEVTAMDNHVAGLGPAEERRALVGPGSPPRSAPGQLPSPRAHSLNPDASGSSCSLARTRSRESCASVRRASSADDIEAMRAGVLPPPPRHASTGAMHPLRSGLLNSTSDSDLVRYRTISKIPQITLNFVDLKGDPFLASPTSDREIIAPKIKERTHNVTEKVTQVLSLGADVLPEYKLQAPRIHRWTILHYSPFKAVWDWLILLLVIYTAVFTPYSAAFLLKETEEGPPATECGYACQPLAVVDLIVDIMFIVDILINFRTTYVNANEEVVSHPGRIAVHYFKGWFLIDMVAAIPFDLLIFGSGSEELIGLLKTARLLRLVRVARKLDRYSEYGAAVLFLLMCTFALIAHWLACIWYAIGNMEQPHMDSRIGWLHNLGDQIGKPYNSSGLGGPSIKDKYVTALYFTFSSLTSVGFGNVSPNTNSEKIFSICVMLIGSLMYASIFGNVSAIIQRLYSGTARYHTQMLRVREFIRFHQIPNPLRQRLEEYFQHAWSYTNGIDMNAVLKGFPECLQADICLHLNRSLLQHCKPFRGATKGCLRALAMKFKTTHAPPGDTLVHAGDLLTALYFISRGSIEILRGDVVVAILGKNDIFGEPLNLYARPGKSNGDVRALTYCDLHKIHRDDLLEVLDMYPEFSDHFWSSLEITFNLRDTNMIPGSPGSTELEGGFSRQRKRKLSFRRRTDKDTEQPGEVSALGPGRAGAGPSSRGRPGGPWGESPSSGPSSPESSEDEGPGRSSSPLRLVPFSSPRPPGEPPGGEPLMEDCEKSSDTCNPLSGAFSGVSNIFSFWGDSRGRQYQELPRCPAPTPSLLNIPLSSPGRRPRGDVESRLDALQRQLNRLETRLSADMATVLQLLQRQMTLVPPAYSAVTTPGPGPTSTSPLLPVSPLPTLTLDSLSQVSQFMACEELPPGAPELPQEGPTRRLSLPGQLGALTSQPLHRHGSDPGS

[10] = target: human norepinephrine transporter (Homo sapiens, UniProt P23975); experiment: In vitro binding/enzyme panel: human norepinephrine transporter
human norepinephrine transporter, sequence (P23975 whole entry): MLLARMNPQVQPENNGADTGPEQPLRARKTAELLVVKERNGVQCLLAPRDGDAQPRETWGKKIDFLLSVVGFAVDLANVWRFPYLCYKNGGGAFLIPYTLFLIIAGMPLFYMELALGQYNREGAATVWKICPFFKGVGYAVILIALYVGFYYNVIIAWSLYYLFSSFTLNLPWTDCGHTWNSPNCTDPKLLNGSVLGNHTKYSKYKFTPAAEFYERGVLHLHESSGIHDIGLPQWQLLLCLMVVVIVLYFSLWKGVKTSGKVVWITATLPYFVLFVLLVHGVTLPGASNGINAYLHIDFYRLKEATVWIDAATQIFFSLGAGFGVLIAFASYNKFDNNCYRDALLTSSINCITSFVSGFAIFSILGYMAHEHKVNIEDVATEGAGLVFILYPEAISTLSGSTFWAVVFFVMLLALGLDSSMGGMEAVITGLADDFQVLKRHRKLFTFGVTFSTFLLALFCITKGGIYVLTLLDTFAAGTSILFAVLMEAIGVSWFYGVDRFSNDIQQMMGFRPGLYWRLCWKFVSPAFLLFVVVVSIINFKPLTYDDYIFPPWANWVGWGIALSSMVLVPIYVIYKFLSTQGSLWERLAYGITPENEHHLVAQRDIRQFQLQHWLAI

[11] = test system: Streptococcus and Enterococcus; experiment: Activity against other Gram-positive pathogens not dependent upon FabI; format: cell-based
[12] = rats, intravenous; cited from earlier work

E. coli FabI enzyme, sequence (P0AEK4 whole entry): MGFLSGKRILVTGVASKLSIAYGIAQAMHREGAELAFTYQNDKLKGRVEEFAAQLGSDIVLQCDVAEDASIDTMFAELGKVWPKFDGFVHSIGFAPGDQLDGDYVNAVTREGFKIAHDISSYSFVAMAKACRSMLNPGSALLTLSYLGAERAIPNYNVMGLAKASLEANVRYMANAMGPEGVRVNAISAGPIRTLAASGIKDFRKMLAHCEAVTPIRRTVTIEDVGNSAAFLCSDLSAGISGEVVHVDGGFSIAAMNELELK

In the case of `CCc1cc(O)c(Oc2cccnc2F)cc1F` [Comparative Example 2, 5-Ethyl-4-fluoro-2-(2-fluoropyridin-3yloxy)phenol, reference compound], the IC50 (E. coli FabI enzyme; recombinant E. coli FabI, range over a number of batches, read-out: FabI Inhibition IC50 (μM) E. coli) is reported as 0.019 to 0.065 µM, the solubility at 24 h [1] is reported as 2400 µg/mL (≈ 9550 µM) and the solubility at 24 h [2] is reported as 8 µg/mL (≈ 31.8 µM). The MIC (S. aureus CIP 54.146) was 0.063 µg/mL (≈ 0.251 µM) and the IC50 (FabI from S. aureus; recombinant S. aureus FabI, range over a number of batches, read-out: FabI Inhibition IC50 (μM) S. aureus) was 0.008 to 0.017 µM.

In the case of `CCc1cc(O)c(Oc2ccc(C(N)=O)cc2F)cc1F` [Example 1, 4-(4-Ethyl-5-fluoro-2-hydroxyphenoxy)-3-fluorobenzamide], the IC50 (E. coli FabI enzyme) is reported as 0.058 to 0.068 µM, the “Affinity or activity in 112 in vitro binding assays and 42 in vitro enzyme assays” value [3] is reported as “devoid of any significant affinity or activity” and the “Tolerability in functional observation battery and respiration function assays” value [4] is reported as “well tolerated”. The “Corrected QT after the end of infusion versus control group” value ([5]; after the end of infusion) was “generally lower than in the control group”, the QT interval prolongation ([5]; single intravenous infusion at 25, 50 and 100 mg/kg) was “no QT interval prolongation was observed” and the “Fold more soluble than comparative example 2” value ([1]; 20% hydroxypropyl beta cyclodextrin with 5% dextrose) was about 5 fold. For the same compound, the solubility at 24 h [1] was 11300 µg/mL (≈ 38500 µM), the “Type of antibacterial effect” value ([6]; target bacterial populations) was “bacteriostatic or slow bactericidal effect” and the “Spontaneous mutation rate towards drug resistance” value ([6]; target bacterial populations exposed to the compound) was “approximately 10^−9”. For the same compound, the “Cross resistance with glycopeptides (Vancomycin) and oxazolidinones (Linezolid)” value ([6]; target microbial populations) was “no cross resistance”, the “Adverse effects during in vivo studies” value [7] was “no major adverse effects were reported” and the “In vivo activity in a murine model” value [8] was “active in vivo”. For the same compound, the “Fold more soluble than comparative example 2” value [2] was “two fold”, the solubility at 24 h [2] was 16 µg/mL (≈ 54.6 µM) and the “In vitro activity against MSSA, MRSA, VISA and VRSA strains” value [9] was “highly active”. For the same compound, the MIC (S. aureus CIP 54.146) was 0.063 to 0.125 µg/mL (≈ 0.215 to 0.426 µM), the IC50 (FabI from S. aureus) was 0.012 to 0.014 µM and the inhibition at 30 µM (hERG) was 35.3%. The “Inhibition of human norepinephrine transporter” value [10] was 88% and the “Activity against Streptococcus and Enterococcus” value [11] was “no activity”.

In the case of `Oc1cc(Cl)ccc1Oc1ccc(Cl)cc1Cl` [Triclosan], the LD50 [12] is given as 29 mg/kg.
